Literature values, collected in US7928112B2, “Substituted 5,6,7,8-tetrahydropyrido[4,3-D]pyrimidines as dipeptidyl peptidase-IV inhibitors for the treatment or prevention of diabetes” (Merck Sharp & Dohme Corp., priority 2006, dated 2011).

Tests used:
[1] = molecular target: T1, DPP-4 (Rattus norvegicus, UniProt P14740); settings: rats; survival doubled from day 7 to day 14
T1 construct: host or cells: rats (in vivo)

[2] = molecular target: T2, DPP-4 (Mus musculus, UniProt P28843); settings: cyclophosphamide-induced neutropenia
T2 construct: host or cells: mouse (in vivo)

[3] = molecular target: T3, DPP-4 (Homo sapiens, UniProt P27487)
T3 construct: GRF is rapidly degraded in plasma to GRF[3-44]; from tissue; host or cells: plasma
T3 sequence (P27487 39-766 limits assumed, species assumed): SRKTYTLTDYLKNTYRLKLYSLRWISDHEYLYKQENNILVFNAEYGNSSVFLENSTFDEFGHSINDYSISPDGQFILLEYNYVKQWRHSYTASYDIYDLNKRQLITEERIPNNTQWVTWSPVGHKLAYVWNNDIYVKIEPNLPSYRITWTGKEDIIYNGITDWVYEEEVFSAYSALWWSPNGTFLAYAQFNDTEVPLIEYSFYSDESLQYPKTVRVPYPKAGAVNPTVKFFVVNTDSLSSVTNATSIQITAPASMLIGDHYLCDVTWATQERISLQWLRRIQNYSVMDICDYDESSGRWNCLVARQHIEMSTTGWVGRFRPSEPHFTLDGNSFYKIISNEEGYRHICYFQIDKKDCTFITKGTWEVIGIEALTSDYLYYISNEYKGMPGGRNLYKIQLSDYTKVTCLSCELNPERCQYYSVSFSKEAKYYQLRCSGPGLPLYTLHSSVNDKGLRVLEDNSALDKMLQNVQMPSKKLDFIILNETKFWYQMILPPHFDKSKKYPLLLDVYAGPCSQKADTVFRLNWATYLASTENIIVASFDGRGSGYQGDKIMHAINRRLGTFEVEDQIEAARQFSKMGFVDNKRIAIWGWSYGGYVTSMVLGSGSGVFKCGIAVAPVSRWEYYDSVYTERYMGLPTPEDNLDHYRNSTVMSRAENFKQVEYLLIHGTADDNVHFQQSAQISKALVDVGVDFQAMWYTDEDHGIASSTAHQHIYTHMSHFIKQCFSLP

T2 sequence (P28843 whole entry): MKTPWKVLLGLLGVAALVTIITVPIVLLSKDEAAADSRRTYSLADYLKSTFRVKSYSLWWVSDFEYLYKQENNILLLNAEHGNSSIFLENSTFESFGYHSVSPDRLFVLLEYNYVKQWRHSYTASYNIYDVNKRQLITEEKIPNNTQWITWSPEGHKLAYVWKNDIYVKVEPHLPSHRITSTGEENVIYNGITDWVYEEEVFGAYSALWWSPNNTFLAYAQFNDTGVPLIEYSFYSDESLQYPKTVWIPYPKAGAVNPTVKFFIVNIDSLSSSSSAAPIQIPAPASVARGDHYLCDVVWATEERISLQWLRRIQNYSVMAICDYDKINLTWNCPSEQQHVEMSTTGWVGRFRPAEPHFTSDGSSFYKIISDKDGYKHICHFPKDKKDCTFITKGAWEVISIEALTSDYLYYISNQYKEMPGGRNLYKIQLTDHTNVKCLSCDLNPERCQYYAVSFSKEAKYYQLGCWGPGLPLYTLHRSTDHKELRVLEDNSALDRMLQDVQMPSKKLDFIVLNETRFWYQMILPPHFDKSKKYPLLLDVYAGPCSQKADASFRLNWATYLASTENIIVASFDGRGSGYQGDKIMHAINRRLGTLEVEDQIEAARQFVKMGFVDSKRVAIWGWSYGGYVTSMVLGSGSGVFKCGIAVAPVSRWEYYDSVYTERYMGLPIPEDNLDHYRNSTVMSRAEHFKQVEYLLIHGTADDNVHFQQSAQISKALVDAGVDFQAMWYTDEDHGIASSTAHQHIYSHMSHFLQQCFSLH
T1 sequence (P14740 whole entry): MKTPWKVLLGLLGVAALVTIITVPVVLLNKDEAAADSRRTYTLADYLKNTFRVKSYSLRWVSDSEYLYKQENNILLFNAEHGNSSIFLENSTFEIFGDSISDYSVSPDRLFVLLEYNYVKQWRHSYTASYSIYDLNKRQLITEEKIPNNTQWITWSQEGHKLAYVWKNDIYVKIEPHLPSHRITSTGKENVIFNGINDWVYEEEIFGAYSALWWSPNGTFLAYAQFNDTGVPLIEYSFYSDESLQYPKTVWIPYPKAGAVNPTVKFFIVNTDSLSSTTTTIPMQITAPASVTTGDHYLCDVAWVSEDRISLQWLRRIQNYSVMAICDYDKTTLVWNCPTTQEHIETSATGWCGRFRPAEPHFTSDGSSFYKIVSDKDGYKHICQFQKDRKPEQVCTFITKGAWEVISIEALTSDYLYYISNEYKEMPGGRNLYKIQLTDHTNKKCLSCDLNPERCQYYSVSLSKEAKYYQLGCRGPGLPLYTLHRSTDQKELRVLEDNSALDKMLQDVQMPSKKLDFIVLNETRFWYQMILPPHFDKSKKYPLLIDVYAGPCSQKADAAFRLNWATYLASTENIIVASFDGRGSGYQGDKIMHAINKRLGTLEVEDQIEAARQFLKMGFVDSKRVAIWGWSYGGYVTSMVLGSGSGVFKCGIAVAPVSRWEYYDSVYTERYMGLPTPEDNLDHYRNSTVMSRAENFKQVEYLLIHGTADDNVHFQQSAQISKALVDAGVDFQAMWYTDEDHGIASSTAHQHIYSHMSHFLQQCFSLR

SMILES: CC(C)N1CCC(c2ccccc2)(c2ccccc2)CC1 [Prodipine, Pro-Pro-diphenyl-phosphonate]
- cardiac allograft survival [1]: 14 day

SMILES: CC(C)[C@H](N)C(=O)N1CCC[C@H]1B(O)O [Val-Boro-Pro]
- hematopoiesis [2]: stimulated hematopoiesis

SMILES: CC[C@H](C)[C@H](N)C(=O)N1CCC[C@H]1C(=O)N[C@H](C(=O)O)[C@@H](C)CC [diprotin A]
- degradation of GRF to GRF[3-44] in plasma [3]: prevented
